Data published in the supplement of paper PMC10307832.

Legend:
Assay in all cases: relative viability (nuclei count vs DMSO), 5 days (fraction); higher = more cells survive
201T = test system: 201T
Summary of the method: (§1)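 Dosing by pin tool came one day after lung cancer cell lines were seeded in 1536-well plates, using either one drug or a fixed anchor-drug dose plus five library-drug doses (not always all listed) in √10 steps. After 5 days, nuclei were counted on 4× images. Relative viability is treated-well nuclei count divided by vehicle-well nuclei count, and values are medians of duplicate plates.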

COR-L 105 = test system: COR-L 105
Summary of the method: as §1

ChaGo-K-1 = test system: ChaGo-K-1
Summary of the method: as §1

EPLC-272H = test system: EPLC-272H
Summary of the method: as §1

H3255 = test system: H3255
Summary of the method: as §1

HCC-78 = test system: HCC-78
Summary of the method: as §1

HCC-827 = test system: HCC-827
Summary of the method: as §1

LC-2-ad = test system: LC-2-ad
Summary of the method: as §1

LCLC-97TM1 = test system: LCLC-97TM1
Summary of the method: as §1

NCI-H1666 = test system: NCI-H1666
Summary of the method: as §1

NCI-H1915 = test system: NCI-H1915
Summary of the method: as §1

NCI-H2087 = test system: NCI-H2087
Summary of the method: as §1

NCI-H2126 = test system: NCI-H2126
Summary of the method: as §1

NCI-H2347 = test system: NCI-H2347
Summary of the method: as §1

NCI-H23 = test system: NCI-H23
Summary of the method: as §1

NCI-H2405 = test system: NCI-H2405
Summary of the method: as §1

NCI-H520 = test system: NCI-H520
Summary of the method: as §1

NCI-H647 = test system: NCI-H647
Summary of the method: as §1

NCI-H650 = test system: NCI-H650
Summary of the method: as §1

NCI-H661 = test system: NCI-H661
Summary of the method: as §1

PC-14 = test system: PC-14
Summary of the method: as §1

RERF-LC-KJ = test system: RERF-LC-KJ
Summary of the method: as §1

O=c1cc(-c2cccc3c2Sc2ccccc2S3)oc(N2CCOCC2)c1 + CC(C)C[C@H](NC(=O)[C@H](Cc1ccccc1)NC(=O)c1cnccn1)B(O)O [Bortezomib] (partner 0.002 µM)
relative viability (201T; first compound 0.08 µM): 1.07 | relative viability (201T; first compound 0.253 µM): 1.15 | relative viability (201T; first compound 0.8 µM): 1.15 | relative viability (201T; first compound 2.53 µM): 1.02 | relative viability (201T; first compound 8 µM): 1.08 | relative viability (COR-L 105; first compound 0.08 µM): 0.669 | relative viability (COR-L 105; first compound 0.253 µM): 0.715 | relative viability (COR-L 105; first compound 0.8 µM): 0.741 | relative viability (COR-L 105; first compound 2.53 µM): 0.795 | relative viability (COR-L 105; first compound 8 µM): 0.733 | relative viability (ChaGo-K-1; first compound 0.08 µM): 0.915 | relative viability (ChaGo-K-1; first compound 0.253 µM): 1.02 | relative viability (ChaGo-K-1; first compound 0.8 µM): 1.28 | relative viability (ChaGo-K-1; first compound 8 µM): 1.29 | relative viability (EPLC-272H; first compound 0.08 µM): 0.806 | relative viability (EPLC-272H; first compound 0.253 µM): 1.09 | relative viability (EPLC-272H; first compound 0.8 µM): 1.02 | relative viability (EPLC-272H; first compound 2.53 µM): 0.721 | relative viability (EPLC-272H; first compound 8 µM): 0.802 | relative viability (H3255; first compound 0.08 µM): 0.837 | relative viability (H3255; first compound 0.253 µM): 0.835 | relative viability (H3255; first compound 0.8 µM): 0.837 | relative viability (H3255; first compound 2.53 µM): 0.646 | relative viability (H3255; first compound 8 µM): 1.07 | relative viability (HCC-78; first compound 0.08 µM): 0.461 | relative viability (HCC-78; first compound 0.253 µM): 0.48 | relative viability (HCC-78; first compound 0.8 µM): 0.355 | relative viability (HCC-78; first compound 2.53 µM): 0.482 | relative viability (HCC-78; first compound 8 µM): 0.525 | relative viability (HCC-827; first compound 0.08 µM): 0.962 | relative viability (HCC-827; first compound 0.253 µM): 0.96 | relative viability (HCC-827; first compound 0.8 µM): 0.974 | relative viability (HCC-827; first compound 2.53 µM): 0.873 | relative viability (HCC-827; first compound 8 µM): 1.11 | relative viability (LC-2-ad; first compound 0.08 µM): 0.989 | relative viability (LC-2-ad; first compound 0.253 µM): 0.827 | relative viability (LC-2-ad; first compound 0.8 µM): 1.06 | relative viability (LC-2-ad; first compound 2.53 µM): 1.02 | relative viability (LC-2-ad; first compound 8 µM): 1.07 | relative viability (LCLC-97TM1; first compound 0.08 µM): 0.732 | relative viability (LCLC-97TM1; first compound 0.253 µM): 0.387 | relative viability (LCLC-97TM1; first compound 0.8 µM): 0.528 | relative viability (LCLC-97TM1; first compound 2.53 µM): 0.344 | relative viability (LCLC-97TM1; first compound 8 µM): 1.16 | relative viability (NCI-H1666; first compound 0.08 µM): 0.666 | relative viability (NCI-H1666; first compound 0.253 µM): 0.887 | relative viability (NCI-H1666; first compound 0.8 µM): 0.559 | relative viability (NCI-H1666; first compound 2.53 µM): 0.793 | relative viability (NCI-H1666; first compound 8 µM): 0.759 | relative viability (NCI-H1915; first compound 0.08 µM): 1.07 | relative viability (NCI-H1915; first compound 0.253 µM): 1.03 | relative viability (NCI-H1915; first compound 0.8 µM): 1.09 | relative viability (NCI-H1915; first compound 2.53 µM): 0.974 | relative viability (NCI-H1915; first compound 8 µM): 1.16 | relative viability (NCI-H2087; first compound 0.08 µM): 1.06 | relative viability (NCI-H2087; first compound 0.253 µM): 1.02 | relative viability (NCI-H2087; first compound 0.8 µM): 1.1 | relative viability (NCI-H2087; first compound 2.53 µM): 0.792 | relative viability (NCI-H2087; first compound 8 µM): 0.888 | relative viability (NCI-H2126; first compound 0.08 µM): 1.13 | relative viability (NCI-H2126; first compound 0.253 µM): 1.13 | relative viability (NCI-H2126; first compound 0.8 µM): 1.12 | relative viability (NCI-H2126; first compound 2.53 µM): 1.1 | relative viability (NCI-H2126; first compound 8 µM): 1.2 | relative viability (NCI-H2347; first compound 0.08 µM): 0.947 | relative viability (NCI-H2347; first compound 0.253 µM): 1.17 | relative viability (NCI-H2347; first compound 0.8 µM): 1.09 | relative viability (NCI-H2347; first compound 2.53 µM): 0.902 | relative viability (NCI-H2347; first compound 8 µM): 1.73 | relative viability (NCI-H23; first compound 0.08 µM): 0.948 | relative viability (NCI-H23; first compound 0.253 µM): 1.16 | relative viability (NCI-H23; first compound 0.8 µM): 1.25 | relative viability (NCI-H23; first compound 2.53 µM): 0.914 | relative viability (NCI-H23; first compound 8 µM): 1.09 | relative viability (NCI-H2405; first compound 0.08 µM): 0.949 | relative viability (NCI-H2405; first compound 0.253 µM): 1.11 | relative viability (NCI-H2405; first compound 0.8 µM): 0.996 | relative viability (NCI-H2405; first compound 2.53 µM): 0.98 | relative viability (NCI-H2405; first compound 8 µM): 1.03 | relative viability (NCI-H520; first compound 0.08 µM): 0.679 | relative viability (NCI-H520; first compound 0.253 µM): 0.619 | relative viability (NCI-H520; first compound 0.8 µM): 0.732 | relative viability (NCI-H520; first compound 2.53 µM): 0.507 | relative viability (NCI-H520; first compound 8 µM): 0.604 | relative viability (NCI-H647; first compound 0.08 µM): 0.978 | relative viability (NCI-H647; first compound 0.253 µM): 1.3 | relative viability (NCI-H647; first compound 0.8 µM): 1.04 | relative viability (NCI-H647; first compound 2.53 µM): 0.85 | relative viability (NCI-H647; first compound 8 µM): 1.57 | relative viability (NCI-H650; first compound 0.08 µM): 0.701 | relative viability (NCI-H650; first compound 0.253 µM): 0.74 | relative viability (NCI-H650; first compound 0.8 µM): 0.869 | relative viability (NCI-H650; first compound 2.53 µM): 0.599 | relative viability (NCI-H650; first compound 8 µM): 0.803 | relative viability (NCI-H661; first compound 0.08 µM): 0.808 | relative viability (NCI-H661; first compound 0.253 µM): 0.935 | relative viability (NCI-H661; first compound 0.8 µM): 0.837 | relative viability (NCI-H661; first compound 2.53 µM): 0.798 | relative viability (NCI-H661; first compound 8 µM): 0.912 | relative viability (PC-14; first compound 0.08 µM): 1.08 | relative viability (PC-14; first compound 0.253 µM): 1.01 | relative viability (PC-14; first compound 0.8 µM): 0.962 | relative viability (PC-14; first compound 2.53 µM): 0.866 | relative viability (PC-14; first compound 8 µM): 0.882 | relative viability (RERF-LC-KJ; first compound 0.08 µM): 1.04 | relative viability (RERF-LC-KJ; first compound 0.253 µM): 1.36 | relative viability (RERF-LC-KJ; first compound 0.8 µM): 1.22 | relative viability (RERF-LC-KJ; first compound 2.53 µM): 1.09 | relative viability (RERF-LC-KJ; first compound 8 µM): 1.02
